Literature values in PubChem BioAssay AID1259409 (Chemical Carcinogenesis Research Information System (CCRIS), 2018).

System: rodent chemically induced tumor inhibition, incidence and multiplicity
Experiment: CCRIS tumor inhibitor studies

C
tumour outcome (control, treated, inhibition, significance) (Carcinogen: N-METHYL-N'-NITRO-N-NITROSOGUANIDINE [70-25-7], Dose [Inhibitor]: 100 MG/KG BW AQUALEN (ACTIVATED CARBON FIBER ADSORBENT) IN DIET 5X/WK FOR 16 MONTHS (STUDY DURATION: 16 MONTHS), Route [Inhibitor]: ORAL, Species: RAT, Strain/Sex: LIO/FEMALE, Target Tissue: Type of Lesion: DUODENUM: ADENOCARCINOMA, Dose [Carcinogen]: 100 MG/L IN DRINKING WATER 5X/WK FOR 12 MONTHS (STUDY DURATION: 16 MONTHS), Promoter: NONE): 2/14 (14.3%), 0/13 (0.0%), 100%, not significant | tumour outcome (control, treated, inhibition, significance) (Carcinogen: N-METHYL-N'-NITRO-N-NITROSOGUANIDINE [70-25-7], Dose [Inhibitor]: 100 MG/KG BW AQUALEN (ACTIVATED CARBON FIBER ADSORBENT) IN DIET 5X/WK FOR 16 MONTHS (STUDY DURATION: 16 MONTHS), Route [Inhibitor]: ORAL, Species: RAT, Strain/Sex: LIO/FEMALE, Target Tissue: Type of Lesion: LIVER: CYSTOCHOLANGIOMA, Dose [Carcinogen]: 100 MG/L IN DRINKING WATER 5X/WK FOR 12 MONTHS (STUDY DURATION: 16 MONTHS), Promoter: NONE): 2/14 (14.3%), 0/13 (0.0%), 100%, not significant | tumour outcome (control, treated, inhibition, significance) (Carcinogen: N-METHYL-N'-NITRO-N-NITROSOGUANIDINE [70-25-7], Dose [Inhibitor]: 100 MG/KG BW AQUALEN (ACTIVATED CARBON FIBER ADSORBENT) IN DIET 5X/WK FOR 16 MONTHS (STUDY DURATION: 16 MONTHS), Route [Inhibitor]: ORAL, Species: RAT, Strain/Sex: LIO/FEMALE, Target Tissue: Type of Lesion: STOMACH: CARCINOMA IN SITU, Dose [Carcinogen]: 100 MG/L IN DRINKING WATER 5X/WK FOR 12 MONTHS (STUDY DURATION: 16 MONTHS), Promoter: NONE): 1/14 (7.1%), 4/13 (30.8%), -334%, not significant | tumour outcome (control, treated, inhibition, significance) (Carcinogen: N-METHYL-N'-NITRO-N-NITROSOGUANIDINE [70-25-7], Dose [Inhibitor]: 100 MG/KG BW AQUALEN (ACTIVATED CARBON FIBER ADSORBENT) IN DIET 5X/WK FOR 16 MONTHS (STUDY DURATION: 16 MONTHS), Route [Inhibitor]: ORAL, Species: RAT, Strain/Sex: LIO/FEMALE, Target Tissue: Type of Lesion: STOMACH: INVASIVE ADENOCARCINOMA, Dose [Carcinogen]: 100 MG/L IN DRINKING WATER 5X/WK FOR 12 MONTHS (STUDY DURATION: 16 MONTHS), Promoter: NONE): 5/14 (35.7%), 1/13 (7.7%), 78%, p<0.05

CC[C@H](C)/C=C/C1=CC2=C(Cl)C(=O)[C@@]3(C)OC(=O)C(C(=O)[C@@H](C)[C@@H](C)O)=C3C2=CO1
tumour outcome (control, treated, inhibition, significance) (Carcinogen: 7,12-DIMETHYLBENZ[A]ANTHRACENE, 57-97-6, Dose [Inhibitor]: 0, 2 UMOL 2/WK FOR 18 WK APPLIED 30 MIN PRIOR TO EACH PROMOTER DOSE BEGINNING 1 WK POST CARCINOGEN DOSE (STUDY DURATION:, Route [Inhibitor]: DERMAL, Species: MOUSE, Strain/Sex: ICR/FEMALE, Target Tissue: Type of Lesion: SKIN: PAPILLOMA, Dose [Carcinogen]: 50 UG ONCE, Promoter: 12-O-TETRADECANOYLPHORBOL-13-ACETATE, 16561-29-8): 100%, 33%, 67%, not calculated

N#C[Se]Cc1ccccc1
tumour outcome (control, treated, inhibition, significance) (Carcinogen: 7,12-DIMETHYLBENZ[A]ANTHRACENE, 57-97-6, Dose [Inhibitor]: 0, 1 PPM (AS SELENIUM) IN DIET BEGINNING 2 WK PRIOR TO CARCINOGEN DOSE AND CONTINUING FOR DURATION OF STUDY (STUDY DURAT, Route [Inhibitor]: ORAL, Species: RAT, Strain/Sex: SPRAGUE-DAWLEY/FEMALE, Target Tissue: Type of Lesion: MAMMARY GLAND: ADENOCARCINOMA, Dose [Carcinogen]: 10 MG ONCE AT 55 D OF AGE, Promoter: NONE USED): 88%, 56%, 36%, p<0.05 | tumour outcome (control, treated, inhibition, significance) (Carcinogen: 7,12-DIMETHYLBENZ[A]ANTHRACENE, 57-97-6, Dose [Inhibitor]: 0, 2 PPM (AS SELENIUM) IN DIET BEGINNING 2 WK PRIOR TO CARCINOGEN DOSE AND CONTINUING FOR DURATION OF STUDY (STUDY DURAT, Route [Inhibitor]: ORAL, Species: RAT, Strain/Sex: SPRAGUE-DAWLEY/FEMALE, Target Tissue: Type of Lesion: MAMMARY GLAND: ADENOCARCINOMA, Dose [Carcinogen]: 10 MG ONCE AT 55 D OF AGE, Promoter: NONE USED): 88%, 40%, 55%, p<0.05 | tumour outcome (control, treated, inhibition, significance) (Carcinogen: 7,12-DIMETHYLBENZ[A]ANTHRACENE, 57-97-6, Dose [Inhibitor]: 0, 3 PPM (AS SELENIUM) IN DIET BEGINNING 2 WK PRIOR TO CARCINOGEN DOSE AND CONTINUING FOR DURATION OF STUDY (STUDY DURAT, Route [Inhibitor]: ORAL, Species: RAT, Strain/Sex: SPRAGUE-DAWLEY/FEMALE, Target Tissue: Type of Lesion: MAMMARY GLAND: ADENOCARCINOMA, Dose [Carcinogen]: 10 MG ONCE AT 55 D OF AGE, Promoter: NONE USED): 88%, 40%, 55%, p<0.05 | tumour outcome (control, treated, inhibition, significance) (Carcinogen: 7,12-DIMETHYLBENZ[A]ANTHRACENE, 57-97-6, Dose [Inhibitor]: 0, 25 PPM IN DIET BEGINNING 2 WK PRIOR TO CARCINOGEN DOSE AND CONTINUING FOR 1 WK POST CARCINOGEN DOSE (STUDY DURATION:, Route [Inhibitor]: ORAL, Species: RAT, Strain/Sex: SPRAGUE-DAWLEY/FEMALE, Target Tissue: Type of Lesion: MAMMARY GLAND: TUMOR, Dose [Carcinogen]: 10 MG IN 1 ML OLIVE OIL ONCE AT 7 WK OF AGE, Promoter: NONE USED): 19/21 (91%), 13/21 (62%), 32%, p<0.05 | tumour outcome (control, treated, inhibition, significance) (Carcinogen: BENZO[A]PYRENE, 50-32-8, Dose [Inhibitor]: 0, 0.045 UMOL/G DIET BEGINNING 1 WK PRIOR TO CARCINOGEN TREATMENT AND CONTINUING FOR 1 WK POST CARCINOGEN TREATMENT FOLL, Route [Inhibitor]: ORAL, Species: MOUSE, Strain/Sex: CD-1/FEMALE, Target Tissue: Type of Lesion: FORESTOMACH: PAPILLOMA, Dose [Carcinogen]: 1 MG IN 0.2 ML CORN OIL 2/WK FOR 4 WK, Promoter: NONE USED): 85%, 79%, 7%, not significant

CN1[C@@H]2CC[C@H]1CC(OC(=O)C(CO)c1ccccc1)C2 (some centres undefined)
tumour outcome (control, treated, inhibition, significance) (Carcinogen: N-METHYL-N'-NITRO-N-NITROSOGUANIDINE, 70-25-7, Dose [Inhibitor]: 0, 0.5 MG/KG IN OLIVE OIL SUSPENSION 1/D BEGINNING 1 WK POST LAST CARCINOGEN DOSE AND CONTINUING FOR DURATION OF STUDY (, Species: RAT, Strain/Sex: WISTAR/MALE, Target Tissue: Type of Lesion: GLANDULAR STOMACH: ADENOCARCINOMA, Dose [Carcinogen]: 50 UG/ML IN DRINKING WATER FOR 25 WK, Promoter: NONE USED): 15/18 (83%), 15/19 (79%), 5%, not calculated

c1ccc2c(c1)Nc1ccccc1S2
tumour outcome (control, treated, inhibition, significance) (Carcinogen: BENZO[A]PYRENE, 50-32-8, Dose [Inhibitor]: 0, 3.8 UMOL/G DIET BEGINNING 1 WK PRIOR TO CARCINOGEN TREATMENT AND CONTINUING FOR 1 WK POST CARCINOGEN TREATMENT FOLLOW, Route [Inhibitor]: ORAL, Species: MOUSE, Strain/Sex: CD-1/FEMALE, Target Tissue: Type of Lesion: FORESTOMACH: PAPILLOMA, Dose [Carcinogen]: 1 MG IN 0.2 ML CORN OIL 2/WK FOR 4 WK, Promoter: NONE USED): 85%, 100%, -18%, not significant

Cn1c(=O)[nH]c(=O)c2[nH]cnc21
tumour outcome (control, treated, inhibition, significance) (Carcinogen: URETHANE, 51-79-6, Dose [Inhibitor]: 0.05 UMOL/G BW GIVEN AT 6 HR INTERVALS DURING THE PERIOD OF 0 TO 36 HR AFTER CARCINOGEN TREATMENT FOLLOWED BY 5 MO OBSER, Route [Inhibitor]: INTRAPERITONEAL, Species: MOUSE, Strain/Sex: ICR/FEMALE, Target Tissue: Type of Lesion: LUNG: PAPILLARY ADENOMA, Dose [Carcinogen]: 0.1 MG/G BW ONCE, Promoter: NONE USED): 31/59 (53%), 26/44 (59%), -11%, not significant | tumour outcome (control, treated, inhibition, significance) (Carcinogen: URETHANE, 51-79-6, Dose [Inhibitor]: 0.25 UMOL/G BW 1/D DURING THE PERIOD OF 5 TO 9 D AFTER CARCINOGEN TREATMENT FOLLOWED BY OBSERVATION PERIOD UNTIL END OF, Route [Inhibitor]: INTRAPERITONEAL, Species: MOUSE, Strain/Sex: ICR/FEMALE, Target Tissue: Type of Lesion: LUNG: PAPILLARY ADENOMA, Dose [Carcinogen]: 1 MG/G BW ONCE, Promoter: NONE USED): 49/53 (93%), 50/53 (94%), -1%, not significant
